{
  "source": "paper PMC11968560",
  "about": "(Proteins, 2024)",
  "target": "T1, PfGrp94 (Plasmodium falciparum glucose-regulated protein 94 kDa, endoplasmin) (Plasmodium falciparum, UniProt Q8I0V4)",
  "T1 sequence (Q8I0V4 22-821)": "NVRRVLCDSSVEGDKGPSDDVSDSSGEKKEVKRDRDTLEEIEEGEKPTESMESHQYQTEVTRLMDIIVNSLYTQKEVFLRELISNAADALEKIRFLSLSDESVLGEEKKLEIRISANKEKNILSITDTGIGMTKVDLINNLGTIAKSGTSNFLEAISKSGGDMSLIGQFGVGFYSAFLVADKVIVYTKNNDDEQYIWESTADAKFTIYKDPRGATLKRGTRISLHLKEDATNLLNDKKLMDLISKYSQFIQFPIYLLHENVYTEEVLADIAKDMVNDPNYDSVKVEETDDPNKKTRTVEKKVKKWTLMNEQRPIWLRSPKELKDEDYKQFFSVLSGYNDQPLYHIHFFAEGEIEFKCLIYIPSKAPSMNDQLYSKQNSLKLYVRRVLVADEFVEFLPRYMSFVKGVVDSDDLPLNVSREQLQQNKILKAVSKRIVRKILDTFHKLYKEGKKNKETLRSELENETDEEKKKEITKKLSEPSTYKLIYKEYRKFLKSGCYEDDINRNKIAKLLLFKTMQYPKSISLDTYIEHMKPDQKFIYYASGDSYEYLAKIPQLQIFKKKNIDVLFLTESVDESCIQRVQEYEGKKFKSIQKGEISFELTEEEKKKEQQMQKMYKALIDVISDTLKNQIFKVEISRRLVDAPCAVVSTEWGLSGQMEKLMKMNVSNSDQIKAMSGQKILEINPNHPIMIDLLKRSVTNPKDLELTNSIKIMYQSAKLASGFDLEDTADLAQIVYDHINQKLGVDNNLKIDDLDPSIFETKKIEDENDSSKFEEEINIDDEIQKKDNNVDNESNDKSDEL",
  "assay": "malachite green ATPase inhibition",
  "format": "biochemical",
  "data": [
    {"compound": "CCNC(=O)[C@H]1O[C@@H](n2cnc3c(N)ncnc32)[C@H](O)[C@@H]1O", "note": "[NECA]", "values": [
      {"measurement": "EC50", "result": "3.53 ± 1.5", "unit": "µM"}
    ]}
  ]
}
